Tests used:
THP1 human AML cell line = assay: Viability of human AML cells (THP1) treated in culture with iCT in combination with DON; type: cell-based; conditions: different doses of iCT (cytarabine+doxorubicin) in combination with DON, 72 h in vitro, FIG. 5A
Description: Arrows show the range where synergism occurs. […] FIG. 5C provides the chemical structure of glutamine and 6-diazo-5-oxo-L-norleucine (DON). FIGS. 5D-5E show survival of AML-bearing mice treated with iCT (days 7-11) with or without short term 6-diazo-5-oxo-L-norleucine (DON; 0.3 mg/kg), showing the treatment schedule (FIG. 5D) and Kaplan-Meier survival curves (FIG. 5E). iCT+DON: both given at same time; iCT+DON^+3: DON started 3 days after first dose of iCT. FIGS. 5F-5G show survival of AML-bearing mice treated with iCT (days 7-11) with or without continuous DON ([…]), showing the treatment schedule (FIG. 5F) and Kaplan-Meier survival curves (FIG. 5G). iCT+DON^post: DON started after last dose of iCT.
(§1) To confirm that glutamine metabolism plays a functional role in protecting AML cells from chemotherapy, human AML cells (THP1) were treated in culture with iCT in combination with 6-diazo-5-oxo-L-norleucine (DON), a glutamine analog and antagonist that inhibits all glutamine-dependent enzymes (FIG. 5C). […] Mice carrying AML were then treated in combination with DON at different regimens (FIG. 5D).

MLL-AF9 AML cells = assay: Survival of AML-bearing mice treated with iCT with or without DON; type: in vivo, mouse
Description: Arrows show the range where synergism occurs. […] FIG. 5C provides the chemical structure of glutamine and 6-diazo-5-oxo-L-norleucine (DON). FIGS. 5D-5E show survival of AML-bearing mice treated with iCT (days 7-11) with or without short term 6-diazo-5-oxo-L-norleucine (DON; 0.3 mg/kg), showing the treatment schedule (FIG. 5D) and Kaplan-Meier survival curves (FIG. 5E). iCT+DON: both given at same time; iCT+DON^+3: DON started 3 days after first dose of iCT. […]
To test this hypothesis, a mouse model was used in which cells express MLLAF9, driving leukemia development, luciferase, and GFP. The mouse model allows real-time monitoring of leukemic burden through bioluminescence imaging, and therefore identification of the moment of maximal response to iCT. Bone marrow cells derived from terminally ill primary mice were intravenously transplanted into secondary wildtype recipients, leading to the development of a very aggressive disease that can be monitored in real time since only AML cells express luciferase and GFP. Mice were treated with a chemotherapy regimen that closely mimics the one used in patients (cytarabine for 5 days and doxorubicin for the first 3 days) or vehicle, and followed disease progression using bioluminescence imaging (FIG. 6A). It was discovered that the amount of maximal response occurs 3-4 days after the last dose of chemotherapy (FIG. 6B). This means that at this moment, after the selection pressure of chemotherapy, massive neighboring cell death, and possibly other stress factors such as niche alteration, certain cells have adapted and are now started to grow again.
as §1

[1] = Tolerability of daily DON injections in mice carrying AML; type: in vivo, mouse; conditions: daily injections extended for more than 5 days
Description: as §1

[N-]=[N+]=CC(=O)CC[C@H](N)C(=O)O [DON, 6-diazo-5-oxo-L-norleucine]
interaction of iCT and DON on viability of THP1 cells (THP1 human AML cell line): synergy at several doses
survival of AML-bearing mice, DON given together with iCT, versus iCT alone (MLL-AF9 AML cells; DON 0.3 mg/kg daily for 5 days at the same time as iCT (cytarabine 100 mg/kg 5 days + doxorubicin 3 mg/kg first 3 days), FIG. 5B/5E): did not extend survival
survival of AML-bearing mice, DON short treatment (MLL-AF9 AML cells; DON daily for 5 days at 0.3 mg/kg, FIG. 5B/5E): did not have much effect
interaction between iCT and DON treatment on survival (MLL-AF9 AML cells; DON every other day at 0.3 mg/kg, extended treatment after iCT, FIG. 5G): clear synergism
survival of AML-bearing mice, DON every other day after iCT, versus iCT alone (MLL-AF9 AML cells; DON every other day at 0.3 mg/kg, started after last dose of iCT (iCT+DONpost), p=0.0019, FIG. 5F/5G): increased substantially
survival of AML-bearing mice, DON delayed 3 days after first dose of iCT (MLL-AF9 AML cells; iCT+DON+3: short-term DON 0.3 mg/kg started 3 days after first dose of iCT, spanning the moment of maximal response, FIG. 5E): a clear survival benefit was achieved
lethality of daily DON injections [1]: proved lethal
